# Results published in patent US10501516B2, “Peptide compound” (TAKEDA PHARMACEUTICAL COMPANY LIMITED, priority 2016, dated 2019).
# Square brackets hold non-standard residues; d marks the D form. Side chains are listed from the residue outwards. Peptide text beside a SMILES is read from it. * marks the point of attachment. NMeY = CN[C@@H](Cc1ccc(O)cc1)C(=O)O; Palmitoyl = CCCCCCCCCCCCCCCC(=O)*; αMeF = C[C@](N)(Cc1ccccc1)C(=O)O; Iva = CC[C@](C)(N)C(=O)O; Aib = CC(C)(N)C(=O)O
# Columns and labels:
# Male C57BL/6J mice = assay: Conditioned taste aversion (CTA) test; format: in vivo, mouse; details: 3 nmol/kg s.c.
# Description: Male C57BL/6J (9 weeks old) mice were habituated to time-restricted bottled water supply (2-3 hours/day) and subcutaneous injection of saline for 1 week. Mice were divided into the groups based on the data of body weight and water intake. CTA test was performed according to the following protocol. On day 1 for the first conditioning, mice were given 0.1% sodium saccharin solution to drink for 3 hours. Ten-minutes after supplying the saccharin solution, vehicles, liraglutides and P41 were administered subcutaneously. […] On day 2, mice were given tap water for 3 hours and subcutaneous injection of saline after water supply. On day 3, the second conditioning was conducted as the same procedure used on day 1. On day 4, mice were given tap water for 3 hours without subcutaneous injection. On day 5, both tap water and saccharin solution were supplied to mice for 3 hours without subcutaneous injection and the intake of each fluid was measured. Saccharin preference ratio (%) was calculated according to the following equation: {(amount of saccharin intake)/(amount of saccharin intake+amount of water intake)}×100.
# cynomolgus monkeys = assay: Food intake and emesis study in cynomolgus monkeys; format: in vivo, cynomolgus monkey
# Description: One male and one female cynomolgus monkeys (age: 4 years old, body weight: 3.9 kg in male, 2.7 kg in female) were used. The monkeys were housed in individual cages with a 12 hr:12 hr light-dark schedule at 22-27° C., and given 100 g of pellet diet (Oriental Yeast Co. Ltd) once daily. The diet was supplied after completion of the clinical observation at 8 hour post dose on the days of dosing. On other days during the experimental period, the diet was supplied each day after the completion of examinations and the remaining diet was withdrawn on the following morning. P41 was dissolved in 0.5 w/v % mannitol solution. The compound at 0.05 mg/kg was subcutaneously administered at day 1 and then at 0.15 mg/kg at day 4. Body weight was measured once during the pre-dosing period and on day 1, 4, 8, 11 and 15. Food intake was measured every day during the experimental period.
# Male ob/ob mice = assay: Repeated dosing study in ob/ob mice; format: in vivo, mouse; details: for ALT / AST / TC / TG: plasma, mean ± SD
# Description: Male ob/ob mice (9 weeks old) were divided into the groups based on the data of body weight, food intake, and plasma parameters. Vehicle or P41 was subcutaneously administered once a day for 4 weeks. Body weight and food intake were monitored during the study. Compounds were dissolved in 10% DMSO/saline. After the study, blood was collected and plasma parameters were measured. At day 29, the animals were sacrificed.
# Plasma glucose, triglyceride (TG), total cholesterol (TC), aspartate aminotransferase (AST), and alanine aminotransferase (ALT) were analyzed by Autoanalyzer 7180 (Hitachi High-Technologies Corporation, Japan). Blood glycated hemoglobin (GHb) was measured with the automated GHb analyzers (HLC-723G8, Tosoh, Tokyo, Japan). Liver triglyceride content was measured as follows: a piece of tissue was homogenized in saline and lipid was extracted by the addition of hexane:isopropanol (3:2) solution. The lipid phase was collected, dried and then dissolved in isopropanol. The concentration of triglyceride was measured by Triglyceride E-test (Wako Pure Chemical Industries, Ltd, Japan) and triglyceride content per g liver was calculated. Plasma insulin was measured with ELISA Assay kit (Shibayagi Co. Ltd., Japan).
# Male KKA^y mice = assay: Repeated administration in KKA^y mice; format: in vivo, mouse; details: for ALT / AST / TC / TG: plasma, mean ± SD
# Description: Male KKA^y mice (10 weeks old) were divided into the groups based on the data of body weight, food intake, glycated hemoglobin (GHb), and plasma parameters. P41 was subcutaneously administered once a day for 4 weeks. Compounds were dissolved in 10% DMSO/saline. Body weight and food intake were monitored during the study. After the study, blood was collected and GHb and plasma parameters were measured. The animals were sacrificed, and the liver and the adipose tissues were dissected and weighed. Lipid was extracted from a piece of liver tissue and liver triglyceride (TG) content was measured.
# Plasma glucose and TG were measured by Autoanalyzer 7180 (Hitachi High-Technologies Corporation, Japan). Blood GHb was measured with the automated GHb analyzers (HLC-723G8, Tosoh, Tokyo, Japan). Plasma insulin was measured with ELISA Assay kit (Shibayagi Co. Ltd., Japan). Liver TG content was measured as follows: a piece of tissue was homogenized in saline and lipid was extracted by the addition of hexane:isopropanol (3:2) solution. The lipid phase was collected, dried and then dissolved in isopropanol. The concentration of TG was measured by Triglyceride E-test (Wako Pure Chemical Industries) and TG content per g liver was calculated.
# male C57BL/6J mouse = assay: Evaluation of feeding suppressive action in mice; format: in vivo; details: 30 nmol/kg s.c. once a day for 3 days; 3-days cumulative food consumption vs solvent control
# How it was run: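 Male C57BL/6J mice, 8-9 weeks, ad libitum fed, given compound (30 or 100 nmol/2 mL in 10% DMSO saline) s.c. at 2 mL/kg once daily for 3 days. Cumulative 3-day food consumption measured by weighing; suppression rate (%) calculated relative to vehicle controls.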
# [1] = 10, 30 and 100 nmol/kg s.c. once a day for 4 weeks
# [2] = 10 nmol/kg s.c. once a day for 4 weeks
# [3] = 30 nmol/kg s.c. once a day for 4 weeks
# [4] = 100 nmol/kg s.c. once a day for 4 weeks
compound,measurement,setting,value
CCCCCCCCCCCCCCCC(=O)NCC(=O)NCC(=O)NCC(=O)NCC(=O)NCCCC[C@H](NC(=O)[C@H](CC(=O)O)NC(=O)[C@H](CO)NC(=O)[C@@H](NC(=O)[C@](C)(Cc1ccccc1)NC(=O)[C@@H](NC(=O)CNC(=O)[C@H](CCC(=O)O)NC(=O)C(C)(C)NC(=O)[C@H](Cc1ccc(O)cc1)NC)[C@@H](C)O)[C@@H](C)O)C(=O)N[C@@H](CO)C(=O)N[C@H](C(=O)NC(C)(C)C(=O)N[C@@H](CC(C)C)C(=O)N[C@@H](CCC(=O)O)C(=O)N[C@@H](CCCCN)C(=O)N[C@@H](CCC(N)=O)C(=O)N[C@@H](CCCNC(=N)N)C(=O)N[C@@H](CCC(N)=O)C(=O)N[C@@](C)(CC)C(=O)N[C@@H](CCC(=O)O)C(=O)N[C@@H](Cc1ccccc1)C(=O)N[C@H](C(=O)N[C@@H](CCCNC(=N)N)C(=O)N[C@@H](Cc1c[nH]cn1)C(=O)N[C@@H](CC(C)C)C(=O)N[C@@H](CC(C)C)C(=O)N[C@@H](CC(N)=O)C(=O)N[C@@H](CCCCN)C(=O)NC(C)(C)C(=O)N[C@H](C(=O)N[C@@H](CCCNC(=N)N)C(=O)N[C@@H](CCC(N)=O)C(=O)N[C@@H](CCCNC(=N)N)C(=O)N[C@@H](Cc1ccc(O)cc1)C(N)=O)[C@@H](C)O)C(C)C)[C@@H](C)CC [Example 41] (H-[NMeY][Aib]EGT[αMeF]TSDK([Gly-Gly-Gly-Gly-Palmitoyl])SI[Aib]LEKQRQ[Iva]EFVRHLLNK[Aib]TRQRY-NH2),induction of conditioned taste aversion (emetic effects),Male C57BL/6J mice,did not induce CTA
same,Saccharin preference ratio (%),"Male C57BL/6J mice; two conditionings, mean ± SD",76.8 ± 9.5%
same,food consumption,"cynomolgus monkeys; 0.05 and 0.15 mg/kg (ca. 10 and 30 nmol/kg) s.c., one male and one female",almost completely abolished food consumption
same,duration of inhibitory effect of food consumption,cynomolgus monkeys; 0.05 and 0.15 mg/kg s.c.,≥ 2 days
same,vomiting,"cynomolgus monkeys; 0.05 and 0.15 mg/kg s.c., throughout the experimental period",did not induce vomiting
same,GHb,Male ob/ob mice; [1],significant decrease
same,body weight and cumulative food intake,Male ob/ob mice; [1],dose-dependent body weight and cumulative food intake reduction
same,plasma glucose levels,Male ob/ob mice; [1],significant decrease
same,plasma insulin levels,Male ob/ob mice; [1],Dose-dependent decrease
same,"liver and mesenteric, epididymal, and inguinal adipose tissue weight, and liver TG content","Male ob/ob mice; 10, 30 and 100 nmol/kg s.c. once a day for 4 weeks, dose-dependent",decreased
same,ALT,Male ob/ob mice; [2],50.6 ± 23.8 U/L
same,AST,Male ob/ob mice; [2],82.3 ± 25.0 U/L
same,TC,Male ob/ob mice; [2],137.0 ± 12.7 mg/dL
same,TG,Male ob/ob mice; [2],52.4 ± 13.0 mg/dL
same,ALT,Male ob/ob mice; [3],38.3 ± 9.3 U/L
same,AST,Male ob/ob mice; [3],83.5 ± 21.5 U/L
same,TG,Male ob/ob mice; [3],51.6 ± 14.2 mg/dL
same,ALT,Male ob/ob mice; [4],41.6 ± 10.1 U/L
same,AST,Male ob/ob mice; [4],77.7 ± 13.1 U/L
same,TC,Male ob/ob mice; [4],136.8 ± 6.1 mg/dL
same,TG,Male ob/ob mice; [4],46.9 ± 12.9 mg/dL
same,decrease in body weight compared with vehicle group,Male KKA^y mice; [2],4.2%
same,decrease in body weight compared with vehicle group,Male KKA^y mice; [3],9.8%
same,decrease in body weight compared with vehicle group,Male KKA^y mice; [4],30.1%
same,"GHb, PG and plasma insulin levels",Male KKA^y mice; [1],dose-dependent and significant decrease
same,liver tissue weight,Male KKA^y mice; [1],Comparable reduction
same,ALT,Male KKA^y mice; [2],31.3 ± 9.7 U/L
same,AST,Male KKA^y mice; [2],53.4 ± 11.9 U/L
same,TC,Male KKA^y mice; [2],139.3 ± 19.0 mg/dL
same,TG,Male KKA^y mice; [2],357.1 ± 76.9 mg/dL
same,ALT,Male KKA^y mice; [3],24.9 ± 2.1 U/L
same,AST,Male KKA^y mice; [3],48.9 ± 8.6 U/L
same,TC,Male KKA^y mice; [3],155.9 ± 20.1 mg/dL
same,TG,Male KKA^y mice; [3],210.1 ± 53.3 mg/dL
same,ALT,Male KKA^y mice; [4],21.7 ± 7.6 U/L
same,AST,Male KKA^y mice; [4],52.6 ± 7.3 U/L
same,TC,Male KKA^y mice; [4],131.4 ± 14.0 mg/dL
same,TG,Male KKA^y mice; [4],138.1 ± 54.4 mg/dL
same,Rate of feeding suppression (%),male C57BL/6J mouse,−52.1%
